US8778959B2, “AZA-bridged ring-fused indoles and indolines” (AbbVie Inc., priority 2009, dated 2014)

Assays:
[1] = test system: primary rat cortical neurons; conditions: comparable to that evoked by BDNF; cited from earlier work
[2] = test system: patients with mild-to-moderate Alzheimer's disease; conditions: cited from earlier work
[3] = test system: SK-N-SH human neuroblastoma cells; assay: Serum Deprivation/JC-1 Mitochondrial Membrane Potential (MMP) Assay; type: cell-based; conditions: Homo sapiens, SK-N-SH, 18 h; for Emax: percent maximal intensity in JC-1 ratio normalized to peak value for 10 μM dimebolin, read-out: JC-1 max %; for EC50: serum deprivation ~18 hours, JC-1 ratio normalized to peak value for 10 μM dimebolin, single curve fit to mean of n=2-3
Procedure: SK-N-SH human neuroblastoma cells obtained from American Type Culture Collection (Rockville, Md.) were maintained in the log phase of growth in Minimal Essential Media (MEM), 10% heat inactivated fetal calf serum and 100 units/mL antibiotic-antimycotic (AA). Cells were cultured and maintained in a humidified incubator at 37° C. under 5% CO2 and 95% air. Cells were trypsinized (0.25%) and subcultured every 3 days and used from 15-18 passages. All cell culture supplies were obtained from Invitrogen (Carlsbad, Calif.).
SK-N-SH cells were plated 2-3 days in advance at a concentration of 50,000 cells/well onto collagen coated black-walled 96 well plates (Becton-Dickinson, Bedford, Mass.) in a total volume of 200 μL. On day of experimental treatment, the media containing serum was aspirated from each well and rinsed once with MEM/1% AA without serum. The cells then were incubated overnight in 100 μL of MEM/1% AA (no serum) with and without dimebolin or novel chemical entities overnight for ˜18 hours. The following day, JC-1 dye (5,5′,6,6′-tetrachloro-1,1′,3,3′-tetraethylbenzimidazolcarbocyanide) was diluted 1:10 into MEM media according to the JC-1 Mitochondrial Membrane Potential Assay Kit: (Cayman Chemical Company, Ann Arbor, Mich.) and then 10 μL of the JC-1 dye solution was added to each well. The plates were centrifuged for 5 minutes at 400×g at room temperature followed by 35 minute incubation at 37° C. The plates were washed twice with 200 μL of provided Assay Buffer followed an addition of 100 μL of Assay Buffer to each well. The plates were read with an excitation and emission of 560 nm and 595 nM for red fluorescence and with an excitation and emission of […] and 535 nM for green fluorescence to determine the final JC-1 value taking the red to green fluorescence ratio. This assay is based on change in mitochondrial membrane potential (MMP) using this lipophilic cationic dye, JC-1, by monitoring the changes in the ratio of red to green fluorescence as the MMP depolarizes. This change in MMP reflects the health of the cell with healthy, viable cells have a high JC-1 ratio and high MMP whereas apoptotic, unhealthy cells have a low JC-1 ratio or low MMP.
For the ability of compounds to reverse the stress due to serum deprivation and increase the JC-1 ratio, the percent maximal intensity in JC-1 ratio was normalized to that induced by the peak value for 10 μM dimebolin and plotted against the compound concentration to calculate EC50 values and to control for plate-to-plate variability. Concentration-response data were analyzed using GraphPad Prism (San Diego, Calif.); the EC50 values were derived from a single curve fit to the mean data of n=2-3, in duplicates.
All compounds were dissolved in dimethyl sulfoxide at 10 mM stock solutions and tested at a concentration that the dimethyl sulfoxide levels never exceeded 1%.

[4] = test system: primary postnatal (P0) cortical cells; assay: Neurite Outgrowth Assay (Aβ1-42-treated cortical cells); type: cell-based, rat; conditions: n = 1; for % Attenuation Effect of 5 μM Aβ 1-42: 5 μM Aβ1-42; for Emax: Rattus norvegicus, maximum response relative to 300 nM dimebolin, at the concentration given, read-out: Maximum Effect (of % 300 nM Dimebolin) at Concentration; for Concentration (nM) of Maximum Effect: test compound concentration at which the maximum response was noted
Procedure: In addition to PC12 cells, other cellular model systems may also be used. Rat cortical cells can be cultured and prepared for high content microscopy analysis as previously described (Hu, M.; Schurdak, M. E.; et al. High content screen microscopy analysis of Aβ1-42-induced neurite outgrowth reduction in rat primary cortical neurons: Neuroprotective effects of α7 neuronal nicotinic acetylcholine receptor ligands. Brain Res. 2007, 1151, 227-235). Briefly, cortical cell cultures are plated at density of 5×10^5 cells/mL onto poly-D-lysine coated 96-well plates and maintained in a cell incubator at 37° C. with 5% CO2. Experiments are performed using 6-7 day-old cortical cell cultures by treating with test compounds. In some experiments, the effect of test compounds on reversing Aβ toxicity can also be measured (Hu, M.; Schurdak, M. E.; et al. High content screen microscopy analysis of Aβ1-42-induced neurite outgrowth reduction in rat primary cortical neurons: Neuroprotective effects of α7 neuronal nicotinic acetylcholine receptor ligands. Brain Res. 2007, 1151, 227-235). For assessment of neuroprotective effects, cells are first pretreated with test compounds for about 5 hours. Medium is then replaced with the medium containing freshly prepared about 5 μM Aβ1-42 peptide in the absence or presence of the test compounds for 3 days. The untreated group contains the same percentage of vehicle (DMSO) as in the treatment groups. Cells are fixed with approximately 4% paraformaldehyde containing 0.5% Hoechst 33342 for about 15 minutes, followed by three washes using PBS (pH 7.4) and blocked with 10% donkey serum in PBS for 1 hour at room temperature. The cells are then incubated overnight at about 4° C. with mouse anti-tubulin monoclonal antibody (1:100) for staining neurons and rabbit anti-GFAP (1:1000) for staining glia. In the next day, cells are incubated with FITC-labeled anti-mouse and TRITC-labeled anti-rabbit antibodies (1:1000) for about 1 hour at room temperature. After fixing and staining the cells, nuclei (360/400 nm excitation and 465/300 nm emission filters), neuron (475/350 nm excitation and 535/400 nm emission filters) and glial cell (535 nm excitation and 610 nm emission filters) images are collected using the ImageExpress Micro automatic fluorescent microscopy system (Molecular Devices, Sunnyvale, Calif.) employing a Nikon 10× Plan Fluor objective and Cool Snap HQ CCD camera. The Neurite Outgrowth module in the MetaMorph Imaging software can be used to automatically count total cell number, number of neuron cells, and the extent of neurite outgrowth.
The neurite outgrowth observed for untreated cells is set to 100% response. Treatment of cells with compounds prior to and concomitantly with Aβ1-42 gave a neuroprotective effect with neurite outgrowth maintained or enhanced relative to untreated cells.

[5] = test system: mouse model of multiple sclerosis; conditions: in vivo administration; cited from earlier work

## Cc1ccc2c(c1)c1c(n2CCc2ccc(C)nc2)CCN(C)C1 [dimebolin, 2,3,4,5-tetrahydro-2,8-dimethyl-5-[2-(6-methyl-3-pyridinyl)ethyl]-1H-pyrido[4,3-b]indole]
[1]
  Neurite outgrowth: increase neurite outgrowth
[2]; 20 mg three times a day (60 mg/day)
  Clinical course of disease (ADAS-Cog, improvement over baseline): significant improvement
[2]; reported clinical studies
  Most frequent adverse event: dry mouth

## Cc1ccc(/C=C/c2cccc3c4c([nH]c23)CC2CCC4N2C)cn1 (stereo not drawn) [Example 1, 11-methyl-4-[(E)-2-(6-methylpyridin-3-yl)vinyl]-5,6,7,8,9,10-hexahydro-7,10-epiminocyclohepta[b]indole]
[3]
  Emax: 214%
  EC50: 3.19 µM
[4]
  % Attenuation Effect of 5 μM Aβ 1-42: 27 (n = 1) %
  Emax: 103%
  Concentration (nM) of Maximum Effect: 0.3 nM

## O=C1C=C(c2ccccc2)C(=O)N1c1cccc(Cl)c1 [1-(3-chlorophenyl)-3-phenyl-pyrrole-2,5-dione]
[5]
  Development of the disease: significantly prevented the development of the disease

## Cc1ccc(C#Cc2cccc3c4c([nH]c23)C[C@H]2CC[C@@H]4N2C)cn1 (stereo in doubt) [Example 17, (−)-(7R*,10S*)-11-methyl-4-[(6-methylpyridin-3-yl)ethynyl]-5,6,7,8,9,10-hexahydro-7,10-epiminocyclohepta[b]indole]
[3]
  Emax: 182%
  EC50: 3.87 µM

## Clc1ccc(-c2cccc3c4c([nH]c23)CC2CCC4N2)cn1 (stereo not drawn) [Example 27, 4-(6-chloropyridin-3-yl)-5,6,7,8,9,10-hexahydro-7,10-epiminocyclohepta[b]indole]
[3]
  Emax: 104%
  EC50: 10.2 µM

## Cc1ccc(C#Cc2cccc3c4c([nH]c23)C[C@@H]2CC[C@H]4N2C)cn1 (stereo in doubt) [Example 16, (+)-(7S*,10R*)-11-methyl-4-[(6-methylpyridin-3-yl)ethynyl]-5,6,7,8,9,10-hexahydro-7,10-epiminocyclohepta[b]indole]
[3]
  Emax: 193%
  EC50: 5.11 µM

## CC(=O)N1C2CCC1c1c([nH]c3c(/C=C/c4ccc(C)nc4)cccc13)C2 (stereo not drawn) [Example 18, 11-acetyl-4-[(E)-2-(6-methylpyridin-3-yl)vinyl]-5,6,7,8,9,10-hexahydro-7,10-epiminocyclohepta[b]indole]
[3]
  Emax: 146%
  EC50: 10.6 µM

## Cc1ccc(-c2cccc3c4c([nH]c23)CC2CCC4N2C)cn1 (stereo not drawn) [Example 33, 11-methyl-4-(6-methylpyridin-3-yl)-5,6,7,8,9,10-hexahydro-7,10-epiminocyclohepta[b]indole]
[3]
  Emax: 158%
  EC50: 5.08 µM

## Cc1ccc(/C=C/c2cccc3c4c([nH]c23)C[C@H]2CC[C@@H]4N2C)cn1 (stereo in doubt) [Example 15, (−)-(7R*,10S*)-11-methyl-4-[(E)-2-(6-methylpyridin-3-yl)vinyl]-5,6,7,8,9,10-hexahydro-7,10-epiminocyclohepta[b]indole]
[3]
  Emax: 160%
  EC50: 3.04 µM

## CC(=O)N1C2CCC1c1c([nH]c3c(-c4ccc5ncccc5c4)cccc13)C2 (stereo not drawn) [Example 23, 11-acetyl-4-quinolin-6-yl-5,6,7,8,9,10-hexahydro-7,10-epiminocyclohepta[b]indole]
[3]
  Emax: 209%
  EC50: 6.11 µM

## Cc1ccc(/C=C/c2cccc3c4c([nH]c23)CC2CCC4N2)cn1 (stereo not drawn) [Example 13, 4-[(E)-2-(6-methylpyridin-3-yl)vinyl]-5,6,7,8,9,10-hexahydro-7,10-epiminocyclohepta[b]indole]
[3]
  Emax: 164%
  EC50: 4.62 µM

## c1ccc(COc2cccc3c4c([nH]c23)C[C@H]2CCC[C@@H]4N2)cc1 (stereo in doubt) [Example 9, (7R*,11S*)-4-(benzyloxy)-6,7,8,9,10,11-hexahydro-5H-7,11-epiminocycloocta[b]indole]
[3]
  Emax: 130%
  EC50: 6.03 µM
[4]
  % Attenuation Effect of 5 μM Aβ 1-42: 45 (n = 1) %
  Emax: 115%
  Concentration (nM) of Maximum Effect: 0.03 nM
